The values that follow come from patent US20260232658A1, “AZETIDINYL BENZOXAZOLE COMPOUNDS AND THEIR USE AS MER AND AXL INHIBITORS” (DONG-A ST CO., LTD., priority 2022, published 2026).

In one assay the target is T1, TYRO3 (455-end) (Homo sapiens, UniProt Q06418).
T1 construct: TYRO3 (455-end); purchased SignalChem, Canada
T1 sequence (Q06418 455-890 limits assumed): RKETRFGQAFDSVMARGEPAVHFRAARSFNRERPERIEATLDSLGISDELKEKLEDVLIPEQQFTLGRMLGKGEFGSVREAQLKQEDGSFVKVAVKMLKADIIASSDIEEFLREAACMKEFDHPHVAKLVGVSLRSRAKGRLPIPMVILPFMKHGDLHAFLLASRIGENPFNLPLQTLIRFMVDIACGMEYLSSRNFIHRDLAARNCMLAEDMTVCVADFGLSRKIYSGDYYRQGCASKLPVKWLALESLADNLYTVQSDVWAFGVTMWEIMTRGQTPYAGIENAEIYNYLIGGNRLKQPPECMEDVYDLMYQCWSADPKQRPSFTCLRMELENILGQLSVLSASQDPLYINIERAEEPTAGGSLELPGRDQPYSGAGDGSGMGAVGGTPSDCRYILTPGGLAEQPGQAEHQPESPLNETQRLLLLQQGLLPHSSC
Kind of assay: HTRF kinase activity biochemical assay, TYRO3.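 Also: biotinylated tyrosine kinase substrate phosphorylation detected via streptavidin-XL665 and Eu3+-cryptate anti-phospho antibody time-resolved fluorescence, read after 1 h detection at room temperature, 384-well format.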 The settings on record: recombinant kinase, 10 uM ATP, 30 minutes pre-incubation; read-out: HTRF TYRO IC50.

The target of another assay is T2, human MER (528-end) (Homo sapiens, UniProt Q12866).
T2 construct: human MER (528-end); purchased Carnabio, Japan
T2 sequence (Q12866 528-999 limits assumed): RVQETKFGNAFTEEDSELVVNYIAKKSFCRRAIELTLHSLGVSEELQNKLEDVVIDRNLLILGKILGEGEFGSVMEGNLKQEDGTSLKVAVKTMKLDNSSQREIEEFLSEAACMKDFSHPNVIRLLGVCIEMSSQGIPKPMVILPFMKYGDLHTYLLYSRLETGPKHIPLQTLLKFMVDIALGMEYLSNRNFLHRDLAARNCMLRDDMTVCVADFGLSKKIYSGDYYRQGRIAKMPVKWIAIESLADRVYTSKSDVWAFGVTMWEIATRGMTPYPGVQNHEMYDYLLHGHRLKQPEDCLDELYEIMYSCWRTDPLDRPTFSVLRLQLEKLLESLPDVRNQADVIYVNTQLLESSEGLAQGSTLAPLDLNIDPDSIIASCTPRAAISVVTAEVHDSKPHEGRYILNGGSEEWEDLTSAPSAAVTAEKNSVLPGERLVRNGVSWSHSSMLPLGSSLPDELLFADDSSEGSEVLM
Kind of assay: HTRF kinase activity biochemical assay, MER.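 Also: phosphorylation of a biotin-tagged tyrosine kinase substrate detected by Eu3+-cryptate antibody and streptavidin-XL665 time-resolved fluorescence, read after 1 h at room temperature.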 The settings on record: recombinant kinase, 10 uM ATP, 30 minutes pre-incubation; read-out: HTRF MERTK IC50. On the technique in general: In TR-FRET formats the signal depends on donor and acceptor labels being close together.

The target of another assay is T3, human AXL (473-end) (Homo sapiens, UniProt P30530).
T3 construct: human AXL (473-end); purchased SignalChem, Canada
T3 sequence (P30530 473-894 limits assumed): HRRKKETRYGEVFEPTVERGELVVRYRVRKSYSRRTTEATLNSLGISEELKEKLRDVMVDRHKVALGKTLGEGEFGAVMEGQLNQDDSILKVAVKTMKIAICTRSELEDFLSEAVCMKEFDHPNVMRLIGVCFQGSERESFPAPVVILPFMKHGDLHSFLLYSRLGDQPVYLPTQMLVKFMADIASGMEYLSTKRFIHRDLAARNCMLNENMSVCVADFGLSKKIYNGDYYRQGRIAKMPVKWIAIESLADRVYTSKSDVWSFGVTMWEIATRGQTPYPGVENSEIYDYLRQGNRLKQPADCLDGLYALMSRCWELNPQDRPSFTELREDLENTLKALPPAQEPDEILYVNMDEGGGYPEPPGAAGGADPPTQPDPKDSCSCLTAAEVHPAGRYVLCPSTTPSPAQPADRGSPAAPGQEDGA
Kind of assay: HTRF kinase activity biochemical assay, AXL.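 Also: phosphorylation of a biotinylated tyrosine kinase substrate detected via Eu3+-cryptate anti-TK antibody and streptavidin-XL665, fluorescence read after a 1 h incubation at room temperature.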 The settings on record: recombinant kinase, 10 uM ATP, 30 minutes pre-incubation; read-out: HTRF AXL IC50.

In general, IC50 refers to the point on the concentration scale where inhibition reaches its midpoint. In the case of `C[Si](C)(C)CCOCn1cc(Nc2ncc(C3CN(c4nc5ccc(O)cc5o4)C3)nc2C(N)=O)cn1` [Example 0, 6-[1-(6-hydroxy-1,3-benzoxazol-2-yl)azetidin-3-yl]-3-[(1-{[2-(trimethylsilyl)ethoxy]methyl}-1H-pyrazol-4-yl)amino]pyrazine-2-carboxamide], the figures for the IC50 at TYRO3 (455-end), on human MER (528-end) and at human AXL (473-end) were 2680 nM, 34 nM and 60 nM, respectively.

Turning to `CCc1ccc2nc(N3CC(c4cnc(Nc5cnn(C)c5)c(C(N)=O)n4)C3)oc2c1` [Example 5, 6-[1-(6-ethyl-1,3-benzoxazol-2-yl)azetidin-3-yl]-3-[(1-methyl-1H-pyrazol-4-yl)amino]pyrazine-2-carboxamide], the IC50 was 83 nM on TYRO3 (455-end), under 1 nM at human MER (528-end) and 2 nM at human AXL (473-end).

On to `Cn1cc(Nc2ncc(C3CN(c4nc5ccc(C6=CCCCC6)cc5o4)C3)nc2C(N)=O)cn1` [Example 6, 6-{1-[6-(cyclohex-1-en-1-yl)-1,3-benzoxazol-2-yl]azetidin-3-yl}-3-[(1-methyl-1H-pyrazol-4-yl)amino]pyrazine-2-carboxamide], for which the concentration for half-maximal inhibition (IC50) at TYRO3 (455-end) was 72 nM; at human MER (528-end), under 1 nM; at human AXL (473-end), 1.04 nM.

With `Cn1cc(Nc2ncc(C3CN(c4nc5ccc(Br)cc5o4)C3)nc2C(N)=O)cn1` [Example 6A, 6-[1-(6-bromo-1,3-benzoxazol-2-yl)azetidin-3-yl]-3-[(1-methyl-1H-pyrazol-4-yl)amino]pyrazine-2-carboxamide], the values for the IC50 on TYRO3 (455-end), at human MER (528-end) and at human AXL (473-end) were 60 nM, under 1 nM and 4 nM, respectively.

In the case of `Cn1cc(Nc2ncc(C3CN(c4nc5ccc(C6CCCCC6)cc5o4)C3)nc2C(N)=O)cn1` [Example 7, 6-[1-(6-cyclohexyl-1,3-benzoxazol-2-yl)azetidin-3-yl]-3-[(1-methyl-1H-pyrazol-4-yl)amino]pyrazine-2-carboxamide], the IC50 at TYRO3 (455-end) was 680 nM; at human MER (528-end) it was 3 nM; at human AXL (473-end) it was 6 nM.

Turning to `Cn1cc(Nc2ncc(C3CN(c4nc5ccc(-c6ccccc6)cc5o4)C3)nc2C(N)=O)cn1` [Example 8, 3-[(1-methyl-1H-pyrazol-4-yl)amino]-6-[1-(6-phenyl-1,3-benzoxazol-2-yl)azetidin-3-yl]pyrazine-2-carboxamide], the figures for the IC50 at TYRO3 (455-end), on human MER (528-end) and on human AXL (473-end) were 280 nM, 2 nM and 7 nM, respectively.

With `Cn1cc(Nc2ncc(C3CN(c4nc5ccc(C6CCCC6)cc5o4)C3)nc2C(N)=O)cn1` [Example 10, 6-[1-(6-cyclopentyl-1,3-benzoxazol-2-yl)azetidin-3-yl]-3-[(1-methyl-1H-pyrazol-4-yl)amino]pyrazine-2-carboxamide], the IC50 on TYRO3 (455-end) was 110 nM; at human MER (528-end), under 1 nM; at human AXL (473-end) it was under 1 nM.

For the molecule `Cn1cc(Nc2ncc(C3CN(c4nc5ccc(C6=CCCC6)cc5o4)C3)nc2C(N)=O)cn1` [Example 10A, 6-{1-[6-(cyclopent-1-en-1-yl)-1,3-benzoxazol-2-yl]azetidin-3-yl}-3-[(1-methyl-1H-pyrazol-4-yl)amino]pyrazine-2-carboxamide], the results for the IC50 at TYRO3 (455-end), at human MER (528-end) and at human AXL (473-end) were 690 nM, 3 nM and 4 nM, respectively.

Turning to `Cn1cc(Nc2ncc(C3CN(c4nc5ccc(C6=CCOCC6)cc5o4)C3)nc2C(N)=O)cn1` [Example 11, 6-{1-[6-(3,6-dihydro-2H-pyran-4-yl)-1,3-benzoxazol-2-yl]azetidin-3-yl}-3-[(1-methyl-1H-pyrazol-4-yl)amino]pyrazine-2-carboxamide], the values for the IC50 on TYRO3 (455-end), at human MER (528-end) and on human AXL (473-end) were 280 nM, 1 nM and 2 nM, respectively.

As for `Cn1cc(Nc2ncc(C3CN(c4nc5ccc(C(F)(F)F)cc5o4)C3)nc2C(N)=O)cn1` [Example 12, 3-[(1-methyl-1H-pyrazol-4-yl)amino]-6-{1-[6-(trifluoromethyl)-1,3-benzoxazol-2-yl]azetidin-3-yl}pyrazine-2-carboxamide], the IC50 at TYRO3 (455-end) came out at 220 nM; on human MER (528-end) it was 1 nM; on human AXL (473-end), 4 nM.

For the molecule `COC(=O)c1ccc2nc(N3CC(c4cnc(Nc5cnn(C)c5)c(C(N)=O)n4)C3)oc2c1` [Example 13, methyl 2-(3-{6-carbamoyl-5-[(1-methyl-1H-pyrazol-4-yl)amino]pyrazin-2-yl}azetidin-1-yl)-1,3-benzoxazole-6-carboxylate], the IC50 on TYRO3 (455-end) stood at 120 nM; on human MER (528-end), 2 nM; on human AXL (473-end) it was 3 nM.

As to `NC(=O)c1nc(C2CN(c3nc4ccccc4o3)C2)cnc1Nc1cn[nH]c1` [Example 14, 6-[1-(1,3-benzoxazol-2-yl)azetidin-3-yl]-3-[(1H-pyrazol-4-yl)amino]pyrazine-2-carboxamide], the values for the IC50 on TYRO3 (455-end), at human MER (528-end) and at human AXL (473-end) were 490 nM, 8 nM and 14 nM, respectively.

On to `Cn1cc(Nc2ncc(C3CN(c4nc5ccc(C6CCOC6)cc5o4)C3)nc2C(N)=O)cn1` (stereo not drawn) [Example 15, 3-[(1-methyl-1H-pyrazol-4-yl)amino]-6-{1-[6-(oxolan-3-yl)-1,3-benzoxazol-2-yl]azetidin-3-yl}pyrazine-2-carboxamide], for which the IC50 stood at 550 nM at TYRO3 (455-end), 3 nM on human MER (528-end) and 9 nM on human AXL (473-end).

In the case of `Cn1cc(Nc2ncc(C3CN(c4nc5ccc(C6=CCOC6)cc5o4)C3)nc2C(N)=O)cn1` [Example 15A, 6-{1-[6-(2,5-dihydrofuran-3-yl)-1,3-benzoxazol-2-yl]azetidin-3-yl}-3-[(1-methyl-1H-pyrazol-4-yl)amino]pyrazine-2-carboxamide], the IC50 worked out at 74 nM at TYRO3 (455-end), 2 nM at human MER (528-end) and 5 nM at human AXL (473-end).

Regarding `Cn1cc(Nc2ncc(C3CN(c4nc5ccc(CO)cc5o4)C3)nc2C(N)=O)cn1` [Example 16, 6-{1-[6-(hydroxymethyl)-1,3-benzoxazol-2-yl]azetidin-3-yl}-3-[(1-methyl-1H-pyrazol-4-yl)amino]pyrazine-2-carboxamide], the 50% inhibitory concentration (IC50) at TYRO3 (455-end) is 860 nM; at human MER (528-end), 7 nM; at human AXL (473-end), 30 nM.

Consider `Cn1cc(Nc2ncc(C3CN(c4nc5ccc(/C=C/C(C)(C)O)cc5o4)C3)nc2C(N)=O)cn1` [Example 17, 6-(1-{6-[(1E)-3-hydroxy-3-methylbut-1-en-1-yl]-1,3-benzoxazol-2-yl}azetidin-3-yl)-3-[(1-methyl-1H-pyrazol-4-yl)amino]pyrazine-2-carboxamide], for which the IC50 is 241 nM on TYRO3 (455-end) and 2 nM on human AXL (473-end).

Take `Cn1cc(Nc2ncc(C3CN(c4nc5ccc(C(=O)O)cc5o4)C3)nc2C(N)=O)cn1` [Example 18A, 2-(3-f{6-carbamoyl-5-[(1-methyl-1H-pyrazol-4-yl)amino]pyrazin-2-yl}azetidin-1-yl)-1,3-benzoxazole-6-carboxylic acid]: the IC50 was over 12500 nM on TYRO3 (455-end), 3710 nM on human MER (528-end) and 5900 nM on human AXL (473-end).

For `Cn1cc(Nc2ncc(C3CN(c4nc5ccc(O)cc5o4)C3)nc2C(N)=O)cn1` [Example 20, 6-[I1-(6-hydroxy-1,3-benzoxazol-2-yl)azetidin-3-yl]-3-[(1-methyl-1H-pyrazol-4-yl)amino]pyrazine-2-carboxamide], the IC50 amounted to 980 nM on TYRO3 (455-end) and 29 nM on human MER (528-end).

Consider `Cn1cc(Nc2ncc(C3CN(c4nc5ccc(OCC(=O)O)cc5o4)C3)nc2C(N)=O)cn1` [Example 73A, {[2-(3-f{6-carbamoyl-5-[(1-methyl-1H-pyrazol-4-yl)amino]pyrazin-2-yl}azetidin-1-yl)-1,3-benzoxazol-6-yl]oxy}acetic acid], for which the values for the IC50 at human MER (528-end) and at human AXL (473-end) were 150 nM and 210 nM, respectively.
